Experimental findings from PubChem BioAssay (NCI) are described below.

SMILES strings stand for the structures.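 Where inhibition never reached the appropriate level, the endpoint shown equals the highest concentration tested. Otherwise, values were interpolated linearly from a five-concentration, 48-hour dose response in 96-well plates. GI50 marks 50% less growth. Definition used: TGI = concentration required for complete inhibition of growth.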

Holding throughout (assay): inhibition of tumour cell growth, NCI panel, 48 h
In assay [1] the test system is NCI-H460 lung.
Assay [2] deals with A549 NSCLC.
Assay [3] deals with EKVX NSCLC.
In assay [4] the test system is SK-MEL-2 melanoma.
The subject of assay [5] is COLO 205 colon.
In assay [6] the test system is ACHN renal.
The subject of assay [7] is NCI-H226 lung.
Assay [8] concerns SF-295 CNS.
The subject of assay [9] is HOP-62 NSCLC.
Assay [10] deals with T-47D breast.
The test system of assay [11] is MDA-MB-435.
The subject of assay [12] is MDA-N.

As for `C/C(=N\NC(=O)c1ccccc1O)c1cccc(/C(C)=N/NC(=O)c2ccccc2O)n1.O=S(=O)([O-])[O-].[Fe+2]`, the TGI in [1], in assay [2], in assay [3], in assay [4], in assay [5] and in [6] was > 100 µM each time. Also, the TGI in assay [7], in assay [8] and in assay [9] was > 100 µM each time. Besides, the GI50 in [5] and in assay [7] was > 100 µM in each case.
Consider `Cc1ccc2c(=O)cc(-c3ccc(C)s3)[nH]c2n1`, for which the TGI in assay [10] was > 66.5 µM; in assay [1] it was > 100 µM; in assay [2], > 33.8 µM; in [3] it was > 100 µM; in assay [4], > 100 µM; in assay [5] it was 2.29 µM. In addition, the TGI in assay [6] is > 69 µM; in assay [7], 2.45 µM; in assay [8] it was 2.79 µM; in assay [9], > 100 µM.
In the case of `O=C(N/N=C/c1cc(Br)cc(Br)c1[O-])c1ccccc1O.O=C(N/N=C/c1cc(Br)cc(Br)c1[O-])c1ccccc1O.[Zn+2]`, the TGI in assay [1] was determined as 9.26 µM; in assay [2], 21.6 µM; in assay [3], 10.9 µM; in assay [4], 12 µM; in assay [5], 20.9 µM; in assay [6], 15 µM. Also, the TGI in [7] worked out at 3.19 µM; in [8], 5.28 µM; in assay [9], 4.5 µM.
Take `CCOC(=O)/C(=N/Nc1ccccc1)N1C(=S)C=C(C)NN(C)C1=S`: the TGI in assay [10], in [1], in [2], in assay [3], in assay [4] and in assay [5] was > 100 µM each time. In addition, the TGI was > 100 µM in assay [6], > 100 µM in assay [11] and 84.9 µM in assay [8].
On to `CC1=CC[C@@]2(C)CC[C@](O)(C(C)C)C2C(OC(=O)c2ccccc2)C1` (stereo not given in full), for which the TGI in assay [10] turned out to be 42.6 µM; in assay [1], 40.6 µM; in assay [2], 37.3 µM; in assay [3], 32.3 µM; in [4] it was 32.2 µM; in assay [5], 43 µM. Also, the TGI stood at 32.1 µM in [6]; 93.2 µM in assay [11]; 45.3 µM in assay [7]; 34.8 µM in [8]; 33.7 µM in assay [9].
For the compound `COc1nc(N)c(NC(C)=O)c(=O)n1C`, the TGI in [1], in assay [2], in assay [3], in assay [4], in [5] and in assay [6] was > 100 µM throughout. The TGI in [8] is > 100 µM.
As for `COc1cc(C2(c3ncc[nH]3)SSSCC2O)ccc1O` (stereo not given), the TGI is > 74.7 µM in assay [1]; > 100 µM in assay [2]; > 100 µM in assay [3]; > 100 µM in assay [4]; > 59.8 µM in assay [5]; > 100 µM in [7]. The TGI in assay [8] and in assay [9] was > 100 µM in each case.
Consider `CC1C2C=C(O)C(=O)C(C2=O)C1c1ccccc1` (stereo not given), for which the TGI in [2], in assay [3], in [4], in assay [5], in assay [6] and in assay [7] was > 100 µM throughout. Moreover, the TGI in assay [8] and in assay [9] was > 100 µM in each case.
Regarding `CCN(CC)CCN(C)c1ccc(CO)c2c1C(=O)c1ccccc1S2=O` (stereo not given), the TGI is 28.2 µM in assay [10]; 27.8 µM in assay [1]; 25.6 µM in [2]; 13.6 µM in assay [3]; 40.1 µM in [4]; 21.6 µM in assay [5]. Moreover, the TGI in assay [6] was found to be 23.8 µM; in assay [11], 3.65 µM; in [7], 33.6 µM; in assay [8], 28 µM; in assay [9] it was 8.71 µM.
With `CC(=O)OCC(=O)OC[C@H](OCc1ccccc1)[C@@H]1[C@H](OC(C)=O)C(=O)N1Cc1ccccc1`, the TGI in assay [2], in assay [12], in assay [3], in assay [4], in assay [5] and in assay [6] was > 100 µM each time. The TGI in assay [11], in [7], in assay [8] and in assay [9] was > 100 µM each time.
On to `CCc1ccc(COC(=O)C2=C(C)NC(C)=C(C(=O)OCc3ccc(CC)cn3)C2C2=COCCO2)nc1`, for which the TGI in [10] was 36.1 µM; in assay [1], 91.3 µM; in assay [2], > 100 µM; in assay [3], 65.1 µM; in assay [5], 29.6 µM; in assay [6] it was 89.7 µM. The TGI in [11] amounted to 38.3 µM; in assay [7], 40 µM; in [8], 61.3 µM; in assay [9] it was 37.8 µM.
With `CCCCCCCCCOCC(COP(=O)([O-])OCC[N+](C)(C)C)OC` (stereo not given), the TGI in assay [1], in assay [2], in [3], in [4], in [5] and in assay [7] was > 100 µM each time. In addition, the TGI in assay [8] and in assay [9] was > 100 µM in each case.
For the compound `Fc1ccc2c3c([nH]c2c1)CCN(Cc1ccccc1)C3`, the TGI in [10] stood at 47.3 µM; in assay [1], 33.1 µM; in assay [2] it was 45.5 µM; in [3] it was 48.7 µM; in [5] it was 39.4 µM; in assay [6] it was 47.3 µM. Further, the TGI in assay [11] was 34.3 µM; in assay [7] it was 39.5 µM; in [8] it was 27.9 µM; in [9], 28.5 µM.
For the compound `CC1CCC2CC(=O)OC([C@@H]3C(=O)O[C@@H](C4=CCCC4)C4C(C)CCC43)C12` (stereo not given in full), the TGI in assay [1], in assay [2], in [3], in [4], in assay [5] and in [6] was > 100 µM in each case. Besides, the TGI in [7], in assay [8] and in [9] was > 100 µM throughout.
Regarding `COc1cc(OC)cc(-c2cc(=O)c3cc4c(cc3[nH]2)OCO4)c1`, the TGI is 3.33 µM in assay [1]; 45.1 µM in [2]; > 100 µM in [3]; 4.46 µM in assay [4]; 0.471 µM in assay [5]; > 35.5 µM in assay [6]. Also, the figures for the TGI in assay [7], in [8] and in [9] were 1.06 µM, 1.74 µM and 17.9 µM, respectively.
As for `CC(=O)NC(NCCN)(c1ccccc1)c1ccccc1`, the TGI in assay [1], in [2], in assay [3], in [5], in [6] and in assay [11] was > 100 µM each time. Moreover, the TGI in [7], in [8] and in assay [9] was > 100 µM in each case.
As for `OC(CN(CCCl)CCCl)C(O)C(O)C(O)CN(CCCl)CCCl` (stereo not given), the TGI in [10], in assay [1], in assay [2], in assay [3], in [4] and in [5] was > 100 µM each time. The TGI in assay [6] was 17.3 µM; in [11], > 100 µM; in assay [7] it was > 100 µM; in assay [9], > 100 µM.
On to `CCOC(=O)c1nc2cc(C(F)(F)F)ccc2nc1Nc1ccc(C(=O)OC)s1`, for which the TGI is > 100 µM in assay [10]; > 100 µM in assay [1]; > 100 µM in assay [2]; > 100 µM in assay [3]; 43.5 µM in assay [4]; 44.5 µM in assay [5]. Moreover, the TGI is > 100 µM in assay [6]; > 100 µM in [11]; 87.3 µM in [7]; > 100 µM in assay [8]; > 100 µM in assay [9].
As for `CSCSCC(CO)NC(=O)/C(C)=C\c1c(C)[nH]c(=O)[nH]c1=O` (stereo not given), the TGI in assay [1], in [2], in [3], in assay [4], in assay [5] and in [7] was > 250 µM each time. The TGI in assay [8] and in assay [9] was > 250 µM each time.
On to `O=C(c1ccc(Cl)cc1)c1ccc(OCCCOc2ccc(C(=O)c3ccc(Cl)cc3)cc2Cl)c(Cl)c1`, for which the TGI in [1], in assay [2], in [3], in [4], in assay [5] and in assay [6] was > 100 µM in each case. Moreover, the TGI in [7], in assay [8] and in assay [9] was > 100 µM throughout.
As to `CC(C)C1NC(=O)CC(c2ccccc2)N(N=O)C1c1ccccc1` (stereo not given), the TGI in assay [1], in [2], in assay [3], in [4], in assay [5] and in assay [7] was > 100 µM each time. The TGI in [8] and in [9] was > 100 µM throughout.
